Consider 24 compounds from US12370183B2, “Compositions and methods for treating malaria” (Rutgers, The State University of New Jersey, priority 2020, dated 2025).

Where two headings read alike, the source gives them in different places.

What all share (assay type): cell-based
Data set [1] relates to 3D7 strain of Plasmodium falciparum. Nature of the data set: Potency in the 3D7 strain of Plasmodium falciparum (EC50). The conditions noted are these: Plasmodium falciparum. From the text:
(§1) The present invention relates to methods of treating malaria with tetrahydrobenzonaphtyridine carboxanilide (TBN) derivatives and related pyrrolinones and hydrolysis products thereof. These compounds are active against Plasmodium falciparum strains that are resistant to multiple drugs currently on the market. The present invention further relates to novel compounds and pharmaceutical compositions comprising such compounds. The compounds have been synthesized and tested for their potency in the 3D7 strain of Plasmodium falciparum. Their cytotoxicity was also tested in the BJ human fibroblast line. No compounds show significant cytotoxicity.
(§2) A high-throughput screen performed against the Plasmodium parasite. About 8,000 compounds were screened. Each hit was tested against resistant P. falciparum variants K1, V1S, D10DD, ATP4 1247, and C2B. Potency against these assays assured that the chemotype acts through a mechanism distinct from that of halofantrine, chloroquine, mefloquine, pyrimethamine, proguanil, atovaquone, and (+)SJ733. The toxicity of the compounds was also measured by testing their lethality against a BJ cell line (human fibroblasts). No TBNs were toxic. A structure activity investigation was performed in order to improve the EC50 of the TBNs to the single-digit nanomolar range, as well as to increase the water solubility.
(§3) Substituents were installed at N−2 by using a variety of methods. Reductive alkylation (Abdel-Magid, A. F.; Mehrman, S. J. A Review on the Use of Sodium Triacetoxyborohydride in the Reductive Amination of Ketones and Aldehydes. Org. Process Res. Dev. 2006, 10 (5), 971-1031) was a dependable technique that produced over fifteen analogues. Conjugate additions and nucleophilic substitutions provided most of the others. A type of reductive alkylation that uses carboxylic acids instead of aldehydes (the Beller reduction) led to two analogues (Sorribes, I.; Junge, K.; Beller, M. Direct Catalytic N-Alkylation of Amines with Carboxylic Acids. J. Am. Chem. Soc. 2014, 136 (40), 14314-14319. Some of the compounds listed were synthesized through other means, or were derived from other TBNs. Compounds 66 and 128 were produced by the amidation of acids 132 and 133, which had the corresponding substitution already installed. TBNs 93, and 94 were produced from the Pfitzinger products formed from the condensation of isatin with (R)-1-(1-phenylethyl)piperidin-4-one (134) and (S)-1-(1-phenylethyl)piperidin-4-one (135), respectively.

Another data set in a line: in vitro. The conditions noted are these: human.
Source text: as §1, §2

Data set [2] concerns resistant P. falciparum variant K1. In words: Potency against resistant P. falciparum variant K1 (EC50). The conditions noted are these: Plasmodium falciparum, K1, read-out: K1 EC50 (μM). How it is done: as §2, §3
[3] abbreviates: 3D7, read-out: 3D7 Mean EC50 (μM).
The mark [4] stands for this setting: 3D7, read-out: 3D7 Mean EC50 of the TBN (μM).

With `CC(C)(C)OC(=O)N1CCc2nc3ccccc3c(C(=O)Nc3ccc(F)c(F)c3)c2C1` [Compound 87, tert-Butyl 10-((3,4-difluorophenyl)carbamoyl)-3,4-dihydrobenzo[b][1,6]naphthyridine-2(1H)-carboxylate], the EC50 is 1.67 ± 0.8 µM in data set [1] (setting [3]) and over 23.3 µM in the data set “in vitro”.

Take `O=C(Nc1ccc(F)c(F)c1)c1c2c(nc3ccccc13)CCN(CCCO)C2` [Compound 122, N-(3,4-Difluorophenyl)-2-(3-hydroxypropyl)-1,2,3,4-tetrahydrobenzo[b][1,6]naphthyridine-10-carboxamide]: the concentration giving a half-maximal response (EC50) came out at 4.64 ± 1.55 µM in data set [2] and 6.81 ± 2.54 µM in data set [1] (setting [3]).

For the compound `CN(C)CCN1CCc2nc3ccccc3c(C(=O)Nc3ccc(F)c(F)c3)c2C1` [Compound 124, N-(3,4-Difluorophenyl)-2-(2-(dimethylamino)ethyl)-1,2,3,4-tetrahydrobenzo[b][1,6]naphthyridine-10-carboxamide], the values for the EC50 in data set [2] and in data set [1] (setting [3]) were over 19.2 µM and 8.54 ± 1.84 µM, respectively.

Regarding `CN(C)CCCN1CCc2nc3ccccc3c(C(=O)Nc3ccc(F)c(F)c3)c2C1` [Compound 126, N-(3,4-Difluorophenyl)-2-(3-(dimethylamino)propyl)-1,2,3,4-tetrahydrobenzo[b][1,6]naphthyridine-10-carboxamide], the concentration giving a half-maximal response (EC50) is over 19.2 µM in data set [2] and 9.46 ± 2.17 µM in data set [1] (setting [3]).

`NCCN1CCc2nc3ccccc3c(C(=O)Nc3ccc(F)c(F)c3)c2C1` [Compound 129, 2-(2-Aminoethyl)-N-(3,4-difluorophenyl)-1,2,3,4-tetrahydrobenzo[b][1,6]naphthyridine-10-carboxamide]: the EC50 worked out at 9.46 ± 0.982 µM in data set [2] and 14.5 ± 4.73 µM in data set [1] (setting [3]).

Turning to `O=C(O)CCN1CCc2nc3ccccc3c(C(=O)Nc3ccc(F)c(F)c3)c2C1` [Compound 131, 3-(10-((3,4-Difluorophenyl)carbamoyl)-3,4-dihydrobenzo[b][1,6]naphthyridin-2(1H)-yl)propanoic acid], the EC50 in data set [2] and in data set [1] (setting [3]) was over 19.2 µM each time.

Turning to `O=C(Nc1ccc(F)c(F)c1)c1c2c(nc3c1CN(Cc1ccccc1)CC3)CCCC2` [Compound 137, 2-Benzyl-N-(3,4-difluorophenyl)-1,2,3,4,6,7,8,9-octahydrobenzo[b][1,6]naphthyridine-10-carboxamide], the EC50 is 0.279 µM in data set [2], 0.0949 ± 0.0266 µM in data set [1] (setting [3]) and over 3.49 µM in data set [1] (setting [4]).

As for `CCN1CCc2nc3c(c(C(=O)Nc4ccc(F)c(F)c4)c2C1)CCCC3` [Compound 138, N-(3,4-Difluorophenyl)-2-ethyl-1,2,3,4,6,7,8,9-octahydrobenzo[b][1,6]naphthyridine-10-carboxamide], the EC50 in data set [2] is 0.64 µM; in data set [1] (setting [3]), 0.715 ± 0.29 µM; in data set [1] (setting [4]) it was over 12.2 µM.

For `CC(c1ncccn1)N1CCc2nc3c(c(C(=O)Nc4ccc(F)c(F)c4)c2C1)CCCC3` (stereo not shown) [Compound 139, N-(3,4-Difluorophenyl)-2-(1-(pyrimidin-2-yl)ethyl)-1,2,3,4,6,7,8,9-octahydrobenzo[b][1,6]naphthyridine-10-carboxamide], the half-maximal effective concentration (EC50) in data set [2] was found to be 0.266 ± 0.0462 µM; in data set [1] (setting [3]) it was 0.849 ± 0.52 µM; in data set [1] (setting [4]), 0.453 ± 0.238 µM.

In the case of `CC(c1ccccn1)N1CCc2nc3c(c(C(=O)Nc4ccc(F)c(F)c4)c2C1)CCCC3` (stereo not shown) [Compound 140, N-(3,4-Difluorophenyl)-2-(1-(pyridin-2-yl)ethyl)-1,2,3,4,6,7,8,9-octahydrobenzo[b][1,6]naphthyridine-10-carboxamide], the figures for the EC50 in data set [2], in data set [1] (setting [3]) and in data set [1] (setting [4]) were 0.558 ± 0.123 µM, 1.5 ± 0.389 µM and 0.0603 ± 0.0234 µM, respectively.

For `O=C(Nc1ccc(Cl)cc1)c1c2c(nc3cc(Cl)ccc13)CCN(CCc1ccccc1)C2` [Compound 165, 7-Chloro-N-(4-chlorophenyl)-2-phenethyl-1,2,3,4-tetrahydrobenzo[b][1,6]naphthyridine-10-carboxamide], the EC50 in data set [1] (setting [3]) was under 0.00809 µM; in “in vitro”, over 24 µM.

For the compound `COc1ccc(NC(=O)c2c3c(nc4cc(Cl)ccc24)CCN(CCc2ccccc2)C3)cc1OC` [Compound 166, 7-Chloro-N-(3,4-dimethoxyphenyl)-2-phenethyl-1,2,3,4-tetrahydrobenzo[b][1,6]naphthyridine-10-carboxamide], the 50% effective concentration (EC50) in data set [1] (setting [3]) was under 0.0132 µM; in “in vitro”, over 24 µM.

For `O=C(Nc1cccc(Cl)c1)c1c2c(nc3cc(Cl)ccc13)CCN(CCc1ccccc1)C2` [Compound 167, 7-Chloro-N-(3-chlorophenyl)-2-phenethyl-1,2,3,4-tetrahydrobenzo[b][1,6]naphthyridine-10-carboxamide], the figures for the EC50 (in data set [1] (setting [3]); in “in vitro”) were 0.0216 ± 0.012 µM and over 24 µM, respectively.

Consider `O=C(Nc1ccc(Cl)cc1)c1c2c(nc3ccc(Cl)cc13)CCN(CCc1ccccc1)C2` [Compound 168, 8-Chloro-N-(4-chlorophenyl)-2-phenethyl-1,2,3,4-tetrahydrobenzo[b][1,6]naphthyridine-10-carboxamide], for which the half-maximal effective concentration (EC50) in data set [1] (setting [3]) is under 0.0348 µM; in the data set “in vitro”, over 24 µM.

As to `N#Cc1cc(NC(=O)c2c3c(nc4cc(Cl)ccc24)CCN(CCc2ccccc2)C3)ccc1F` [Compound 169, 7-Chloro-N-(3-cyano-4-fluorophenyl)-2-phenethyl-1,2,3,4-tetrahydrobenzo[b][1,6]naphthyridine-10-carboxamide], the EC50 is 0.04 ± 0.032 µM in data set [1] (setting [3]) and over 24 µM in “in vitro”.

For `COc1ccc(NC(=O)c2c3c(nc4ccc(Cl)cc24)CCN(CCc2ccccc2)C3)cc1OC` [Compound 170, 8-Chloro-N-(3,4-dimethoxyphenyl)-2-phenethyl-1,2,3,4-tetrahydrobenzo[b][1,6]naphthyridine-10-carboxamide], the concentration giving a half-maximal response (EC50) is 0.116 ± 0.025 µM in data set [1] (setting [3]) and over 24 µM in “in vitro”.

For `O=C(Nc1ccc(Br)cc1)c1c2c(nc3cc(Cl)ccc13)CCN(CCc1ccccc1)C2` [Compound 171, N-(4-Bromophenyl)-7-chloro-2-phenethyl-1,2,3,4-tetrahydrobenzo[b][1,6]naphthyridine-10-carboxamide], the values for the half-maximal effective concentration (EC50) (in data set [1] (setting [3]); in the data set “in vitro”) were 0.37 ± 0.26 µM and over 24 µM, respectively.

In the case of `O=C1c2c3c(nc4cc(Cl)ccc24)CCN(CCc2ccccc2)C3N1c1ccc(Br)cc1` (stereo not shown) [Compound 175, 2-(4-Bromophenyl)-8-chloro-3-phenethyl-2a,3,4,5-tetrahydrobenzo[b]pyrrolo[4,3,2-de][1,6]naphthyridin-1(2H)-one], the EC50 is under 0.00192 µM in data set [1] (setting [3]) and 15.2 ± 8.47 µM in “in vitro”.

Turning to `O=C1c2c3c(nc4ccc(Cl)cc24)CCN(CCc2ccccc2)C3N1c1cccc(Cl)c1` (stereo not shown) [Compound 176, 9-Chloro-2-(3-chlorophenyl)-3-phenethyl-2a,3,4,5-tetrahydrobenzo[b]pyrrolo[4,3,2-de][1,6]naphthyridin-1(2H)-one], the results for the EC50 (in data set [1] (setting [3]); in “in vitro”) were under 0.00296 µM and over 24 µM, respectively.

`COc1ccc(N2C(=O)c3c4c(nc5cc(Cl)ccc35)CCN(CCc3ccccc3)C42)cc1OC` (stereo not shown) [Compound 178, 8-Chloro-2-(3,4-dimethoxyphenyl)-3-phenethyl-2a,3,4,5-tetrahydrobenzo[b]pyrrolo[4,3,2-de][1,6]naphthyridin-1(2H)-one]: the EC50 in data set [1] (setting [3]) stood at 0.00446 ± 0.002 µM; in “in vitro” it was 9.32 ± 6.69 µM.

For the compound `O=C1c2c3c(nc4cc(Cl)ccc24)CCN(CCc2ccccc2)C3N1c1ccc(Cl)cc1` (stereo not shown) [Compound 179, 8-Chloro-2-(4-chlorophenyl)-3-phenethyl-2a,3,4,5-tetrahydrobenzo[b]pyrrolo[4,3,2-de][1,6]naphthyridin-1(2H)-one], the results for the EC50 (in data set [1] (setting [3]); in “in vitro”) were 0.0059 ± 0.002 µM and 22.6 ± 0.373 µM, respectively.

For the compound `CCOCCN1CCc2nc3ccccc3c3c2C1N(c1ccc(F)c(F)c1)C3=O` (stereo not shown) [Compound 180, 2-(3,4-Difluorophenyl)-3-(2-ethoxyethyl)-2a,3,4,5-tetrahydrobenzo[b]pyrrolo[4,3,2-de][1,6]naphthyridin-1(2H)-one], the EC50 was 0.0087 ± 0.001 µM in data set [1] (setting [3]) and over 24 µM in “in vitro”.

In the case of `O=C1c2c3c(nc4ccc(Cl)cc24)CCN(CCc2ccccc2)C3N1c1ccc(Cl)cc1` (stereo not shown) [Compound 181, 9-Chloro-2-(4-chlorophenyl)-3-phenethyl-2a,3,4,5-tetrahydrobenzo[b]pyrrolo[4,3,2-de][1,6]naphthyridin-1(2H)-one], the EC50 in data set [1] (setting [3]) is 0.0126 ± 0.002 µM; in “in vitro”, over 24 µM.

With `O=C1c2c3c(nc4ccc(Cl)cc24)CCN(CCc2ccccc2)C3N1c1ccc(Br)cc1` (stereo not shown) [Compound 182, 2-(4-Bromophenyl)-9-chloro-3-phenethyl-2a,3,4,5-tetrahydrobenzo[b]pyrrolo[4,3,2-de][1,6]naphthyridin-1(2H)-one], the figures for the EC50 (in data set [1] (setting [3]); in the data set “in vitro”) were 0.0396 ± 0.017 µM and over 24 µM, respectively.

The term EC50 denotes the concentration at which the effect is half-maximal.
